In PubChem BioAssay AID2060882 (Molecular Pharmacology Branch, DTP, NCI, 2025):
Blank lines part the entries; values can stand above or below the compound they belong to.

System: 898857-211-R-J1-PDC complex spheroids, growth % test/control
Experiment: Anticancer human tumor 898857-211-R-J1-PDC patient-derived melanoma cell line growth inhibition [RAS]
Details: for IC50: curve of first compound; for viability, T/C: stronger effect = lower value
Procedure, shortened: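 Tumour cells grown as complex spheroids with HUVEC endothelial cells and mesenchymal stem cells, treated with RAS pathway inhibitor combinations. Each agent spans half-log steps from near clinical Cmax, or 10 microM where Cmax is unknown.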
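Also: spheroids exposed to compound for seven days before readout.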
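For viability, T/C in this document: 100% = DMSO vehicle control wells.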

IC50 (second compound 0.000949 µM): > 10 µM
IC50 (second compound 0.003 µM): > 10 µM
IC50 (second compound 0.00949 µM): 9.66 µM
IC50 (second compound 0.03 µM): 8.56 µM
IC50 (second compound 0.0949 µM): 5.46 µM
IC50 (second compound 0.3 µM): 3.31 µM
Structure (SMILES): CC(C)NCC(C(=O)N1CCN(c2ncnc3c2C(C)CC3O)CC1)c1ccc(Cl)cc1 (stereo unspecified) + CCn1c(-c2cccnc2C(C)OC)c2c3cc(ccc31)N1CCOC(CC(NC(=O)C(C(C)C)N(C)C(=O)C3(F)CCN(C(=O)C#CC(C)(C)N(C)C)CC3)C(=O)N3CCCC(N3)C(=O)OCC(C)(C)C2)C1
viability, T/C (second compound 0.000949 µM, first compound 0.0316 µM): 111%
viability, T/C (second compound 0.000949 µM, first compound 0.1 µM): 101%
viability, T/C (second compound 0.000949 µM, first compound 0.316 µM): 90.9%
viability, T/C (second compound 0.000949 µM, first compound 1 µM): 91.6%
viability, T/C (second compound 0.000949 µM, first compound 3.16 µM): 65.4%
viability, T/C (second compound 0.000949 µM, first compound 10 µM): 50.9%
viability, T/C (second compound 0.003 µM, first compound 0.0316 µM): 115%
viability, T/C (second compound 0.003 µM, first compound 0.1 µM): 117%
viability, T/C (second compound 0.003 µM, first compound 0.316 µM): 103%
viability, T/C (second compound 0.003 µM, first compound 1 µM): 82.1%
viability, T/C (second compound 0.003 µM, first compound 3.16 µM): 79.6%
viability, T/C (second compound 0.003 µM, first compound 10 µM): 57.2%
viability, T/C (second compound 0.00949 µM, first compound 0.0316 µM): 113%
viability, T/C (second compound 0.00949 µM, first compound 0.1 µM): 110%
viability, T/C (second compound 0.00949 µM, first compound 0.316 µM): 102%
viability, T/C (second compound 0.00949 µM, first compound 1 µM): 84.8%
viability, T/C (second compound 0.00949 µM, first compound 3.16 µM): 73%
viability, T/C (second compound 0.00949 µM, first compound 10 µM): 48.7%
viability, T/C (second compound 0.03 µM, first compound 0.0316 µM): 112%
viability, T/C (second compound 0.03 µM, first compound 0.1 µM): 100%
viability, T/C (second compound 0.03 µM, first compound 0.316 µM): 97.3%
viability, T/C (second compound 0.03 µM, first compound 1 µM): 91.1%
viability, T/C (second compound 0.03 µM, first compound 3.16 µM): 74.4%
viability, T/C (second compound 0.03 µM, first compound 10 µM): 45.6%
viability, T/C (second compound 0.0949 µM, first compound 0.0316 µM): 92%
viability, T/C (second compound 0.0949 µM, first compound 0.1 µM): 89.4%
viability, T/C (second compound 0.0949 µM, first compound 0.316 µM): 92.7%
viability, T/C (second compound 0.0949 µM, first compound 1 µM): 76.4%
viability, T/C (second compound 0.0949 µM, first compound 3.16 µM): 60.1%
viability, T/C (second compound 0.0949 µM, first compound 10 µM): 39.7%
viability, T/C (second compound 0.3 µM, first compound 0.0316 µM): 75%
viability, T/C (second compound 0.3 µM, first compound 0.1 µM): 72.7%
viability, T/C (second compound 0.3 µM, first compound 0.316 µM): 69.5%
viability, T/C (second compound 0.3 µM, first compound 1 µM): 55.9%
viability, T/C (second compound 0.3 µM, first compound 3.16 µM): 53.5%
viability, T/C (second compound 0.3 µM, first compound 10 µM): 37.1%

IC50 (second compound 0.0316 µM): > 10 µM
IC50 (second compound 0.1 µM): > 10 µM
IC50 (second compound 0.316 µM): > 10 µM
IC50 (second compound 1 µM): > 10 µM
IC50 (second compound 3.16 µM): > 10 µM
IC50 (second compound 10 µM): 0.0897 µM
Structure (SMILES): CC(Nc1ccc2c(c1)OCCn1cc(N3C(=O)OCC3C(F)F)nc1-2)C(N)=O (stereo unspecified) + C#Cc1c(F)ccc2cc(O)cc(-c3ncc4c(N5CC6CCC(C5)N6)nc(OCC56CCCN5CC(F)C6)nc4c3F)c12
viability, T/C (second compound 0.0316 µM, first compound 0.0316 µM): 96.9%
viability, T/C (second compound 0.0316 µM, first compound 0.1 µM): 98.4%
viability, T/C (second compound 0.0316 µM, first compound 0.316 µM): 98.3%
viability, T/C (second compound 0.0316 µM, first compound 1 µM): 87.7%
viability, T/C (second compound 0.0316 µM, first compound 3.16 µM): 97.8%
viability, T/C (second compound 0.0316 µM, first compound 10 µM): 69.4%
viability, T/C (second compound 0.1 µM, first compound 0.0316 µM): 99.9%
viability, T/C (second compound 0.1 µM, first compound 0.1 µM): 90%
viability, T/C (second compound 0.1 µM, first compound 0.316 µM): 99.2%
viability, T/C (second compound 0.1 µM, first compound 1 µM): 98.4%
viability, T/C (second compound 0.1 µM, first compound 3.16 µM): 91.6%
viability, T/C (second compound 0.1 µM, first compound 10 µM): 69.9%
viability, T/C (second compound 0.316 µM, first compound 0.0316 µM): 106%
viability, T/C (second compound 0.316 µM, first compound 0.1 µM): 101%
viability, T/C (second compound 0.316 µM, first compound 0.316 µM): 92.5%
viability, T/C (second compound 0.316 µM, first compound 1 µM): 94.2%
viability, T/C (second compound 0.316 µM, first compound 3.16 µM): 87.3%
viability, T/C (second compound 0.316 µM, first compound 10 µM): 71.3%
viability, T/C (second compound 1 µM, first compound 0.0316 µM): 108%
viability, T/C (second compound 1 µM, first compound 0.1 µM): 99.8%
viability, T/C (second compound 1 µM, first compound 0.316 µM): 104%
viability, T/C (second compound 1 µM, first compound 1 µM): 94.7%
viability, T/C (second compound 1 µM, first compound 3.16 µM): 83.4%
viability, T/C (second compound 1 µM, first compound 10 µM): 65.2%
viability, T/C (second compound 3.16 µM, first compound 0.0316 µM): 98.1%
viability, T/C (second compound 3.16 µM, first compound 0.1 µM): 89.2%
viability, T/C (second compound 3.16 µM, first compound 0.316 µM): 94.3%
viability, T/C (second compound 3.16 µM, first compound 1 µM): 96.3%
viability, T/C (second compound 3.16 µM, first compound 3.16 µM): 82.8%
viability, T/C (second compound 3.16 µM, first compound 10 µM): 72.4%
viability, T/C (second compound 10 µM, first compound 0.0316 µM): 59.6%
viability, T/C (second compound 10 µM, first compound 0.1 µM): 39.3%
viability, T/C (second compound 10 µM, first compound 0.316 µM): 47.1%
viability, T/C (second compound 10 µM, first compound 1 µM): 40.1%
viability, T/C (second compound 10 µM, first compound 3.16 µM): 32%
viability, T/C (second compound 10 µM, first compound 10 µM): 20.5%

IC50 (second compound 0.000949 µM): 0.00287 µM
IC50 (second compound 0.003 µM): 0.00298 µM
IC50 (second compound 0.00949 µM): 0.00356 µM
IC50 (second compound 0.03 µM): 0.0025 µM
IC50 (second compound 0.0949 µM): 0.00354 µM
IC50 (second compound 0.3 µM): 0.00287 µM
Structure (SMILES): CC1(C)CCC(Nc2ncc(C(F)(F)F)c(-c3c[nH]c4c(P(C)(C)=O)c(C#N)ccc34)n2)CN1 (stereo unspecified) + CCn1c(-c2cc(N3CCN(C)CC3)cnc2C(C)OC)c2c3cc(ccc31)-c1csc(n1)CC(NC(=O)C1CC1C)C(=O)N1CCCC(N1)C(=O)OCC(C)(C)C2
viability, T/C (second compound 0.000949 µM, first compound 0.000949 µM): 104%
viability, T/C (second compound 0.000949 µM, first compound 0.003 µM): 47.7%
viability, T/C (second compound 0.000949 µM, first compound 0.00949 µM): 24.2%
viability, T/C (second compound 0.000949 µM, first compound 0.03 µM): 16.2%
viability, T/C (second compound 0.000949 µM, first compound 0.0949 µM): 17.3%
viability, T/C (second compound 0.000949 µM, first compound 0.3 µM): 15.1%
viability, T/C (second compound 0.003 µM, first compound 0.000949 µM): 79.3%
viability, T/C (second compound 0.003 µM, first compound 0.003 µM): 49.8%
viability, T/C (second compound 0.003 µM, first compound 0.00949 µM): 25.2%
viability, T/C (second compound 0.003 µM, first compound 0.03 µM): 18.4%
viability, T/C (second compound 0.003 µM, first compound 0.0949 µM): 16%
viability, T/C (second compound 0.003 µM, first compound 0.3 µM): 17.5%
viability, T/C (second compound 0.00949 µM, first compound 0.000949 µM): 83.1%
viability, T/C (second compound 0.00949 µM, first compound 0.003 µM): 54.7%
viability, T/C (second compound 0.00949 µM, first compound 0.00949 µM): 23.2%
viability, T/C (second compound 0.00949 µM, first compound 0.03 µM): 15.7%
viability, T/C (second compound 0.00949 µM, first compound 0.0949 µM): 17.8%
viability, T/C (second compound 0.00949 µM, first compound 0.3 µM): 17.8%
viability, T/C (second compound 0.03 µM, first compound 0.000949 µM): 83.3%
viability, T/C (second compound 0.03 µM, first compound 0.003 µM): 43.7%
viability, T/C (second compound 0.03 µM, first compound 0.00949 µM): 23.4%
viability, T/C (second compound 0.03 µM, first compound 0.03 µM): 19.8%
viability, T/C (second compound 0.03 µM, first compound 0.0949 µM): 17.5%
viability, T/C (second compound 0.03 µM, first compound 0.3 µM): 18.3%
viability, T/C (second compound 0.0949 µM, first compound 0.000949 µM): 81.3%
viability, T/C (second compound 0.0949 µM, first compound 0.003 µM): 54%
viability, T/C (second compound 0.0949 µM, first compound 0.00949 µM): 26.2%
viability, T/C (second compound 0.0949 µM, first compound 0.03 µM): 19.4%
viability, T/C (second compound 0.0949 µM, first compound 0.0949 µM): 18.1%
viability, T/C (second compound 0.0949 µM, first compound 0.3 µM): 16.6%
viability, T/C (second compound 0.3 µM, first compound 0.000949 µM): 78.5%
viability, T/C (second compound 0.3 µM, first compound 0.003 µM): 48.9%
viability, T/C (second compound 0.3 µM, first compound 0.00949 µM): 23.7%
viability, T/C (second compound 0.3 µM, first compound 0.03 µM): 18.4%
viability, T/C (second compound 0.3 µM, first compound 0.0949 µM): 16%
viability, T/C (second compound 0.3 µM, first compound 0.3 µM): 17.2%
